The values below come from patent publication US4029671A, “3-[(5-nitro-2-imidazolyl)pyrazol-5-yl]oxamic acid derivatives” (priority 1976, dated 1977).

Assay [1] has as its system Bacteroides fragilis sp. fragilis 1877. Briefly: Agar dilution susceptibility of anaerobic bacteria (Chart 1). The class given is cell-based. Particulars: agar dilution, 37° C., Bacteroides fragilis sp. fragilis 1877; for MIC: Bacteroides fragilis, 24 h, read-out: 24 Hr. MIC. On the technique in general: In agar dilution the substance is mixed into plates at graded concentrations.

Assay [2] relates to Bacteroides fragilis sp. fragilis 104. Described as above. The class given is cell-based. To be noted: 24 h; agar dilution, 37° C.; Bacteroides fragilis sp. fragilis 104; read-out: 24 Hr. MIC.
Assay [3] concerns Bacteroides fragilis sp. fragilis 108. The assay is described as above. The class given is cell-based. To be noted: agar dilution, 37° C., Bacteroides fragilis sp. fragilis 108; for MIC: Bacteroides fragilis, 24 h, read-out: 24 Hr. MIC.
The test system of assay [4] is Bacteroides fragilis sp. fragilis 112. The assay is described as above. The assay is classed as cell-based. Particulars: agar dilution, 37° C., Bacteroides fragilis sp. fragilis 112; for MIC: Bacteroides fragilis, 24 h, read-out: 24 Hr. MIC.
Assay [5] relates to Bacteroides fragilis sp. fragilis 113. Described as above. The assay is classed as cell-based. Particulars: agar dilution, 37° C., Bacteroides fragilis sp. fragilis 113; for MIC: Bacteroides fragilis, 24 h, read-out: 24 Hr. MIC.
For assay [6], the system named is Bacteroides fragilis sp. fragilis 1451. The assay is described as above. The class given is cell-based. To be noted: agar dilution, 37° C., Bacteroides fragilis sp. fragilis 1451; for MIC: Bacteroides fragilis, 24 h, read-out: 24 Hr. MIC.
In assay [7] the test system is Bacteroides fragilis sp. fragilis 62. The description is as above. The class given is cell-based. To be noted: agar dilution, 37° C., Bacteroides fragilis sp. fragilis 62; for MIC: Bacteroides fragilis, 24 h, read-out: 24 Hr. MIC.
Assay [8] relates to Bacteroides fragilis sp. fragilis 1874. Described as above. The assay is classed as cell-based. Particulars: agar dilution, 37° C., Bacteroides fragilis sp. fragilis 1874; for MIC: Bacteroides fragilis, 24 h, read-out: 24 Hr. MIC.
In assay [9] the test system is Bacteroides fragilis sp. vulgatis 1563. Described as above. Particulars: agar dilution, 37° C., Bacteroides fragilis sp. vulgatis 1563; for MIC: Bacteroides fragilis, 24 h, read-out: 24 Hr. MIC. The assay is classed as cell-based.
Assay [10] concerns Clostridium perfringens 81. The assay can be described thus: microbe, parasite or virus in culture. The class given is cell-based. To be noted: for MIC: Clostridium perfringens, 81, 24 h, read-out: 24 Hr. MIC, agar dilution, 37° C.; for 24 Hr. MIC: agar dilution, 37° C.
Assay [11] deals with Eubacterium aerofaciens 1235. The assay can be described thus: Agar dilution susceptibility of anaerobic bacteria (Chart 1). The class given is cell-based. Particulars: agar dilution, 37° C., Eubacterium aerofaciens 1235; for MIC: Collinsella aerofaciens, 1235, 24 h, read-out: 24 Hr. MIC.
The subject of assay [12] is Peptostreptococcus anaerobius 1428. The assay is described as above. The class given is cell-based. Particulars: agar dilution, 37° C., Peptostreptococcus anaerobius 1428; for MIC: Peptostreptococcus anaerobius, 1428, 24 h, read-out: 24 Hr. MIC.
For assay [13], the system named is Peptostreptococcus intermedius 1264. The assay is described as above. The class given is cell-based. To be noted: agar dilution, 37° C., Peptostreptococcus intermedius 1264; for MIC: Peptostreptococcus, 1264, 24 h, read-out: 24 Hr. MIC.
For assay [14], the system named is Propionibacterium acnes 79. The assay is described as above. The class given is cell-based. To be noted: agar dilution, 37° C., Propionibacterium acnes 79; for MIC: Cutibacterium acnes, 79, 24 h, read-out: 24 Hr. MIC.
For assay [15], the system named is Bacteroides fragilis sp. fragilis 1936B. Described as above. To be noted: agar dilution, 37° C., Bacteroides fragilis sp. fragilis 1936B; for MIC: Bacteroides fragilis, 24 h, read-out: 24 Hr. MIC. The assay is classed as cell-based.
In assay [16] the test system is Bacteroides melaninogenicus 2736. The description is as above. The assay is classed as cell-based. To be noted: agar dilution, 37° C., Bacteroides melaninogenicus 2736; for MIC: 2736, 24 h, read-out: 24 Hr. MIC.
Assay [17] deals with Bacteroides vulgatis 1211. The assay is described as above. The assay is classed as cell-based. To be noted: agar dilution, 37° C., Bacteroides vulgatis 1211; for MIC: Bacteroides, 1211, 24 h, read-out: 24 Hr. MIC.
In assay [18] the test system is Bacteroides corrodens 1874. The assay is described as above. To be noted: agar dilution, 37° C., Bacteroides corrodens 1874; for MIC: Eikenella corrodens, 1874, 24 h, read-out: 24 Hr. MIC. The class given is cell-based.
For assay [19], the system named is Salmonella typhimurium. The assay can be described thus: Control of infections caused by Salmonella typhimurium in chickens (Chart 2). The assay is classed as in vivo. Particulars: 60 mg./kg. subcutaneous, day-old chicks, 5 per group, 6 days observation. As to the method:
The efficacy of the novel compounds in the control of infections caused by Salmonella typhimurium in chickens was evaluated in the following manner. The test was carried out using day-old chicks weighing approximately 35 g. each. The chicks were divided into groups of 5 chicks per each dosage level. A portion of the chicks received the test compound which was suspended in 0.2 ml. of polyethylene glycol 200 and administered subcutaneously in the neck. […] All the chicks were challenged with a 1:200 dilution of a culture of the organism, 0.1 ml. of the dilution being injected into each chick in the leg intramuscularly. […] The test compounds are identified in the same manner as set forth in experiment 1. In the chart, column 1 lists the compounds tested; column 2, the dosage of test compound in mg./kg.; and column 3, the survival ratio.

In brackets after ≈: the same amount, converted by molar mass. Structures can show the parent of a compound that is named as a salt.

Regarding `CCC[C@@H]1C[C@@H](C(=O)N[C@@H]([C@H]2O[C@H](SC)[C@H](O)[C@@H](O)[C@H]2O)[C@H](C)Cl)N(C)C1` [C, clindamycin, reference compound], the MIC was 0.25 µg/mL (≈ 0.588 µM) in [1]; 0.125 µg/mL (≈ 0.294 µM) in assay [2]; 0.125 µg/mL (≈ 0.294 µM) in assay [3]; 0.25 µg/mL (≈ 0.588 µM) in [4]; 0.125 µg/mL (≈ 0.294 µM) in [5]; 1 µg/mL (≈ 2.35 µM) in assay [6]. For the same molecule, the MIC was 0.25 µg/mL (≈ 0.588 µM) in assay [7]; no more than 0.06 µg/mL in [8]; 0.125 µg/mL (≈ 0.294 µM) in assay [9]; 4 µg/mL (≈ 9.41 µM) in [10]; 8 µg/mL (≈ 18.8 µM) in [11]; no more than 0.5 µg/mL in assay [12]. For the same molecule, the MIC was 1 µg/mL (≈ 2.35 µM) in assay [13]; no more than 0.5 µg/mL in assay [14]; no more than 0.5 µg/mL in [15]; no more than 0.5 µg/mL in [16]; no more than 0.5 µg/mL in [17]; no more than 0.5 µg/mL in assay [18].
Consider `CCOC(=O)C(=O)Nc1c(C#N)c(-c2ncc([N+](=O)[O-])n2C)nn1C` [Example 1, N-[4-Cyano-1-methyl-3-(1-methyl-5-nitroimidazol-2-yl)pyrazol-5-yl]oxamic acid, ethyl ester], for which the MIC in assay [1] came to 0.25 µg/mL (≈ 0.72 µM); in assay [2], 0.25 µg/mL (≈ 0.72 µM); in assay [3], 0.125 µg/mL (≈ 0.36 µM); in assay [4], 0.125 µg/mL (≈ 0.36 µM); in [5], 0.25 µg/mL (≈ 0.72 µM); in [6] it was 0.25 µg/mL (≈ 0.72 µM). Also, the MIC is 0.5 µg/mL (≈ 1.44 µM) in assay [10]; 0.5 µg/mL (≈ 1.44 µM) in assay [11]; no more than 0.25 µg/mL in assay [12]; 32 µg/mL (≈ 92.1 µM) in [14]; no more than 0.25 µg/mL in assay [15]; no more than 0.25 µg/mL in [16]. Also, the MIC in assay [17] and in assay [18] was no more than 0.25 µg/mL in each case. Moreover, the “24 Hr. MIC” value worked out at 0.25 µg/mL in assay [7], 0.06 µg/mL in assay [8], 0.125 µg/mL in [9] and 16 µg/mL in assay [13]. Further, the “Survival Ratio” value in assay [19] is given as 4/5.
Turning to `CCOC(=O)C(=O)Nc1c(C#N)c(-c2ncc([N+](=O)[O-])n2C)nn1C` [Example 2, N-[4-Cyano-1-methyl-3-(1-methyl-5-nitroimidazol-2-yl)pyrazol-5-yl]oxamic acid, ethyl ester, sodium salt], the “24 Hr. MIC” value is 0.5 µg/mL in [1] (sodium salt); 0.25 µg/mL in [3] (sodium salt); 0.25 µg/mL in assay [4] (sodium salt); 0.25 µg/mL in assay [5] (sodium salt); 0.125 µg/mL in [7] (sodium salt); 0.25 µg/mL in [8] (sodium salt). Also, the “24 Hr. MIC” value was 0.5 µg/mL in assay [9] (sodium salt); no more than 0.25 µg/mL in assay [10] (sodium salt); no more than 0.25 µg/mL in assay [11] (sodium salt); no more than 0.25 µg/mL in assay [12] (sodium salt); greater than 64 µg/mL in assay [13] (sodium salt); greater than 64 µg/mL in [14] (sodium salt). Besides, the “24 Hr. MIC” value was no more than 0.25 µg/mL in assay [15] (sodium salt), 0.5 µg/mL in assay [16] (sodium salt), no more than 0.25 µg/mL in assay [17] (sodium salt) and no more than 0.25 µg/mL in [18] (sodium salt). Also, in [19] (sodium salt), the “Survival Ratio” value is reported as 2/5.
Consider `Cn1nc(-c2ncc([N+](=O)[O-])n2C)c(C#N)c1NC(=O)C(=O)NN` [Example 6, 5-[4-Cyano-1-methyl-3-(1-methyl-5-nitroimidazol-2-yl)pyrazol5-yl]semioxamazide], for which the MIC in assay [1] was 0.5 µg/mL (≈ 1.5 µM); in assay [2] it was 0.25 µg/mL (≈ 0.75 µM); in [3] it was 0.5 µg/mL (≈ 1.5 µM); in [4] it was 0.5 µg/mL (≈ 1.5 µM); in [5] it was 0.25 µg/mL (≈ 0.75 µM); in assay [6], 0.5 µg/mL (≈ 1.5 µM). Moreover, the MIC in assay [7] was 0.5 µg/mL (≈ 1.5 µM); in assay [8], 0.25 µg/mL (≈ 0.75 µM); in [9], 0.125 µg/mL (≈ 0.375 µM); in [12], no more than 0.25 µg/mL; in assay [13], 32 µg/mL (≈ 96 µM); in assay [14] it was 32 µg/mL (≈ 96 µM). In addition, the MIC in assay [16] was no more than 0.25 µg/mL. Besides, the “24 Hr. MIC” value is 0.5 µg/mL in assay [10]; 0.5 µg/mL in [11]; no more than 0.25 µg/mL in [15]; no more than 0.25 µg/mL in assay [17]; no more than 0.25 µg/mL in assay [18]. In addition, the “Survival Ratio” value in [19] is 5/5.
For `Cn1nc(-c2ncc([N+](=O)[O-])n2C)c(C#N)c1NC(=O)C(=O)c1ccccc1` [Example 10, N-[4-cyano-1-methyl-3-(1-methyl-5-nitroimidazol-2-yl)pyrazol-5-yl]-2-phenylglyoxylamide], the MIC in assay [1], in [2], in [3], in assay [4], in assay [7] and in assay [8] was no more than 0.03 µg/mL throughout. In addition, the results for the MIC in [10], in assay [13] and in [14] were 1 µg/mL (≈ 2.64 µM), 64 µg/mL (≈ 169 µM) and 64 µg/mL (≈ 169 µM), respectively. The “24 Hr. MIC” value was no more than 0.03 µg/mL in assay [5]; no more than 0.03 µg/mL in assay [6]; 0.06 µg/mL in [9]; 2 µg/mL in assay [11]; 1.0 µg/mL in [12]; 2 µg/mL in [15]. For the same molecule, the “24 Hr. MIC” value in [16] amounted to 2 µg/mL; in [17] it was 4 µg/mL; in [18] it was 1.0 µg/mL.
